# According to ChEMBL document CHEMBL3856212, “Synthesis, anti-proliferative and genotoxicity studies of 6-chloro-5-(2-substituted-ethyl)-1,3-dihydro-2H-indol-2-ones and 6-chloro-5-(2-chloroethyl)-3-(alkyl/ary-2-ylidene)indolin-2-ones” (Eur J Med Chem, 2016):
# Key:
# Type in all cases: functional
# [1] = Cytotoxicity against human HOP62 cells assessed as assessed as growth inhibition at 10^-5 M after 48 hrs by SRB assay relative to control; conditions: HOP-62, 48 h, read-out: GI
# [2] = Cytotoxicity against human DU145 cells assessed as assessed as growth inhibition at 10^-5 M after 48 hrs by SRB assay relative to control; conditions: DU-145, 48 h, read-out: GI
# [3] = Cytotoxicity against human EKVX cells assessed as assessed as growth inhibition at 10^-5 M after 48 hrs by SRB assay relative to control; conditions: read-out: GI
# [4] = Cytotoxicity against human NCI-H322M cells assessed as assessed as growth inhibition at 10^-5 M after 48 hrs by SRB assay relative to control; conditions: read-out: GI
# [5] = Cytotoxicity against human SW1222 cells assessed as assessed as growth inhibition at 10^-5 M after 48 hrs by SRB assay relative to control; conditions: SW1222, 48 h, read-out: GI
# [6] = Cytotoxicity against human UO31 cells assessed as growth inhibition after 48 hrs by SRB assay; conditions: UO-31, 48 h; for CC50: read-out: LD50 (the source's name)
# [7] = Cytotoxicity against human IGROV1 cells assessed as growth inhibition after 48 hrs by SRB assay; conditions: IGROV-1, 48 h; for CC50: read-out: LD50 (the source's name)
# [8] = Cytotoxicity against human SR cells assessed as growth inhibition after 48 hrs by SRB assay; conditions: for CC50: read-out: LD50 (the source's name)
# [9] = Cytotoxicity against human BT549 cells assessed as growth inhibition after 48 hrs by SRB assay; conditions: BT-549, 48 h; for CC50: read-out: LD50 (the source's name)
# [10] = Cytotoxicity against human MALME-3M cells assessed as growth inhibition after 48 hrs by SRB assay; conditions: for CC50: read-out: LD50 (the source's name)
# [11] = Cytotoxicity against human MDA-MB-468 cells assessed as growth inhibition after 48 hrs by SRB assay; conditions: MDA-MB-468, 48 h; for CC50: read-out: LD50 (the source's name)
# [12] = Cytotoxicity against human HOP92 cells assessed as growth inhibition after 48 hrs by SRB assay; conditions: HOP-92, 48 h; for CC50: read-out: LD50 (the source's name)
# [13] = Cytotoxicity against human TK10 cells assessed as growth inhibition after 48 hrs by SRB assay; conditions: TK-10, 48 h; for CC50: read-out: LD50 (the source's name)
# [14] = Cytotoxicity against human NCI-H460 cells assessed as assessed as growth inhibition at 10^-5 M after 48 hrs by SRB assay relative to control; conditions: NCI-H460, 48 h, read-out: GI
# [15] = Cytotoxicity against human HCT15 cells assessed as growth inhibition after 48 hrs by SRB assay; conditions: HCT-15, 48 h; for CC50: read-out: LD50 (the source's name)
# [16] = Cytotoxicity against human HT-29 cells assessed as growth inhibition after 48 hrs by SRB assay; conditions: HT-29, 48 h; for CC50: read-out: LD50 (the source's name)
# [17] = Cytotoxicity against human COLO205 cells assessed as assessed as growth inhibition at 10^-5 M after 48 hrs by SRB assay relative to control; conditions: COLO 205, 48 h, read-out: GI
smiles,measurement,setting,value
O=C1Cc2cc(CCn3cncn3)c(Cl)cc2N1,inhibition of growth at 10 µM,[1],30.4%
same,inhibition of growth at 10 µM,[2],3.54%
same,inhibition of growth at 10 µM,[3],70.5%
same,inhibition of growth at 10 µM,[4],7.87%
same,inhibition of growth at 10 µM,[5],45.8%
same,GI50,[6],1 µM
same,TGI,[6],> 1000 nM
same,CC50,[6],> 1000 nM
same,GI50,[7],1000 nM
same,TGI,[7],> 1000 nM
same,CC50,[7],> 1000 nM
same,GI50,[8],1 µM
same,TGI,[8],> 1000 nM
same,CC50,[8],> 1000 nM
same,GI50,[9],8.72 µM
same,TGI,[9],> 1000 nM
same,CC50,[9],> 1000 nM
same,GI50,[10],1 µM
same,TGI,[10],> 1000 nM
same,CC50,[10],> 1000 nM
same,GI50,[11],2180 nM
same,TGI,[11],9.54 µM
same,CC50,[11],> 1000 nM
same,GI50,[12],3.02 µM
same,TGI,[12],> 1 µM
same,CC50,[12],> 1000 nM
same,GI50,[13],1000 nM
same,TGI,[13],> 1000 nM
same,CC50,[13],> 1000 nM
same,inhibition of growth at 10 µM,[14],16.1%
same,GI50,[15],9.59 µM
same,TGI,[15],> 1000 nM
same,CC50,[15],> 1000 nM
same,GI50,[16],1000 nM
same,TGI,[16],> 1000 nM
same,CC50,[16],> 1000 nM
O=C1Cc2cc(CCn3ccnc3)c(Cl)cc2N1,inhibition of growth at 10 µM,[1],33.1%
same,inhibition of growth at 10 µM,[2],31%
same,inhibition of growth at 10 µM,[3],72.7%
same,inhibition of growth at 10 µM,[4],9.68%
same,GI50,[6],5.85 µM
same,TGI,[6],> 1000 nM
same,CC50,[6],> 1000 nM
same,inhibition of growth at 10 µM,[17],29.9%
same,GI50,[7],1000 nM
same,TGI,[7],> 1000 nM
same,CC50,[7],> 1000 nM
same,GI50,[8],9.24 µM
same,TGI,[8],> 1000 nM
same,CC50,[8],> 1000 nM
same,GI50,[9],9.51 µM
same,TGI,[9],> 1000 nM
same,CC50,[9],> 1000 nM
same,GI50,[10],7.95 µM
same,TGI,[10],> 1000 nM
same,CC50,[10],> 1000 nM
same,GI50,[11],2740 nM
same,TGI,[11],> 1 µM
same,CC50,[11],> 1000 nM
same,GI50,[12],3.54 µM
same,TGI,[12],9.15 µM
same,CC50,[12],> 1000 nM
same,GI50,[13],1000 nM
same,TGI,[13],> 1000 nM
same,CC50,[13],> 1000 nM
same,inhibition of growth at 10 µM,[14],52.6%
same,GI50,[15],7.07 µM
same,TGI,[15],> 1000 nM
same,CC50,[15],> 1000 nM
same,GI50,[16],1000 nM
same,TGI,[16],> 1000 nM
same,CC50,[16],> 1000 nM
O=C1Cc2cc(CCN3CCNCC3)c(Cl)cc2N1,inhibition of growth at 10 µM,[1],43.7%
same,inhibition of growth at 10 µM,[3],75.2%
same,inhibition of growth at 10 µM,[4],19.3%
same,inhibition of growth at 10 µM,[5],59.2%
same,inhibition of growth at 10 µM,[17],40.1%
same,GI50,[8],6.2 µM
same,TGI,[8],> 1000 nM
same,CC50,[8],> 1000 nM
same,GI50,[9],8.18 µM
same,TGI,[9],> 1000 nM
same,CC50,[9],> 1000 nM
same,GI50,[11],2240 nM
same,TGI,[11],7.42 µM
same,CC50,[11],> 1000 nM
same,inhibition of growth at 10 µM,[14],25.7%
same,GI50,[15],6.23 µM
same,TGI,[15],> 1000 nM
same,CC50,[15],> 1000 nM
same,GI50,[16],1000 nM
same,TGI,[16],> 1000 nM
same,CC50,[16],> 1000 nM
